Data published in ChEMBL document CHEMBL5346899, “PKM2/PDK1 dual-targeted shikonin derivatives restore the sensitivity of EGFR-mutated NSCLC cells to gefitinib by remodeling glucose metabolism” (Eur J Med Chem, 2023).
Activity calls are given as the source filed them. No cut-off for these calls is given here.

Columns and labels:
[1] = system: NCI-H1299; assay: cells; type: functional, cell-based; settings: Homo sapiens, NCI-H1299, 24 h
Description: Antiproliferative activity against human NCI-H1299 cells assessed as inhibition of cell growth incubated for 24 hrs by CCK-8 assay

[2] = system: A549; assay: cells; type: functional, cell-based; settings: Homo sapiens, A549, 24 h
Description: Antiproliferative activity against human A549 cells assessed as inhibition of cell growth incubated for 24 hrs by CCK-8 assay

[3] = in vitro; settings: human, HEK293T cells
Description: Cytotoxicity against HEK293T cells assessed as inhibition of cell growth incubated for 24 hrs by CCK-8 assay

[4] = system: NCI-H1975; assay: cells; type: functional, cell-based; settings: Homo sapiens, NCI-H1975, 24 h
Description: Antiproliferative activity against human NCI-H1975 cells assessed as inhibition of cell growth incubated for 24 hrs by CCK-8 assay

[5] = system: HCC827; assay: cells; type: functional, cell-based; settings: Homo sapiens, HCC827, 24 h
Description: Antiproliferative activity against human HCC827 cells assessed as inhibition of cell growth incubated for 24 hrs by CCK-8 assay

[6] = system: HCC827; assay: Induction of apoptosis in human HCC827 cells assessed as early apoptotic cells at 2 micromol/L incubated for 24 hrs by Annexin V-FITC/PI staining based analysis (reference value: 9.14%); type: functional; settings: dose 2 µmol/L, at 2 µM
[7] = system: NCI-H1975; assay: Induction of apoptosis in human NCI-H1975 cells assessed as early apoptotic cells at 2 micromol/L incubated for 24 hrs by Annexin V-FITC/PI staining based analysis (reference value: 1.88%); type: functional; settings: dose 2 µmol/L, at 2 µM
[8] = system: NCI-H1975; assay: Induction of mitochondrial transmembrane potential dissipation in human NCI-H1975 cells assessed as cells with low mitochondrial transmembrane potential at 1 micromol/L by FL-1/FL-2 channel based fluorescence analysis (reference value: 2.13%); type: functional; settings: dose 1 µmol/L; at 1 µM
[9] = system: A549; assay: Induction of apoptosis in human A549 cells assessed as early apoptotic cells at 2 micromol/L incubated for 24 hrs by Annexin V-FITC/PI staining based analysis (reference value: […]%); type: functional; settings: dose 2 µmol/L
[10] = system: NCI-H1299; assay: Induction of apoptosis in human NCI-H1299 cells assessed as late apoptotic cells at 2 micromol/L incubated for 24 hrs by Annexin V-FITC/PI staining based analysis (reference value: 14.9%); type: functional; settings: dose 2 µmol/L, at 2 µM
[11] = system: A549; assay: Induction of apoptosis in human A549 cells assessed as late apoptotic cells at 2 micromol/L incubated for 24 hrs by Annexin V-FITC/PI staining based analysis (reference value: 3.18%); type: functional; settings: dose 2 µmol/L, at 2 µM
[12] = system: NCI-H1975; assay: Induction of apoptosis in human NCI-H1975 cells assessed as late apoptotic cells at 2 micromol/L incubated for 24 hrs by Annexin V-FITC/PI staining based analysis (reference value: 2.66%); type: functional; settings: dose 2 µmol/L, at 2 µM
[13] = system: NCI-H1975; assay: Induction of mitochondrial transmembrane potential dissipation in human NCI-H1975 cells assessed as cells with high mitochondrial transmembrane potential at 1 micromol/L by FL-1/FL-2 channel based fluorescence analysis (reference value: 97.4%); type: functional; settings: dose 1 µmol/L; at 1 µM
[14] = system: NCI-H1299; assay: Induction of apoptosis in human NCI-H1299 cells assessed as early apoptotic cells at 2 micromol/L incubated for 24 hrs by Annexin V-FITC/PI staining based analysis (reference value: 2.43%); type: functional; settings: dose 2 µmol/L, at 2 µM
[15] = system: HCC827; assay: Induction of apoptosis in human HCC827 cells assessed as late apoptotic cells at 2 micromol/L incubated for 24 hrs by Annexin V-FITC/PI staining based analysis (reference value: 8.42%); type: functional; settings: dose 2 µmol/L, at 2 µM
[16] = system: NCI-H1299; assay: Induction of apoptosis in human NCI-H1299 cells assessed as dead cells at 500 micromol/L incubated for 24 hrs by Annexin V-FITC/PI staining based analysis (reference value: 0.021%); type: functional; settings: dose 500 µmol/L, at 500 µM
[17] = system: NCI-H1299; assay: Induction of apoptosis in human NCI-H1299 cells assessed as live cells at 500 micromol/L incubated for 24 hrs by Annexin V-FITC/PI staining based analysis (reference value: 96.6%); type: functional; settings: dose 500 µmol/L, at 500 µM
[18] = system: NCI-H1299; assay: Induction of apoptosis in human NCI-H1299 cells assessed as dead cells at 500 micromol/L incubated for 24 hrs in presence of ML265 by Annexin V-FITC/PI staining based analysis (reference value: 0.021%); type: functional; settings: dose 500 µmol/L, at 500 µM
[19] = system: NCI-H1299; assay: Induction of apoptosis in human NCI-H1299 cells assessed as early apoptotic cells at 500 micromol/L incubated for 24 hrs by Annexin V-FITC/PI staining based analysis (reference value: 0.772%); type: functional; settings: dose 500 µmol/L, at 500 µM
[20] = system: NCI-H1299; assay: Synergistic antiproliferative activity against human NCI-H1299 cells assessed as cell growth inhibition at 500 micromol/L incubated for 24 hrs in presence of ML265 by CCK-8 analysis; type: functional, cell-based; settings: dose 500.0 µmol/L
[21] = system: NCI-H1299; assay: Induction of apoptosis in human NCI-H1299 cells assessed as live cells at 500 micromol/L incubated for 24 hrs in presence of ML265 by Annexin V-FITC/PI staining based analysis (reference value: 96.6%); type: functional; settings: dose 500 µmol/L, at 500 µM
[22] = system: NCI-H1299; assay: Antitumor activity against human NCI-H1299 cells xenografted in mouse assessed as pathological damage to tumor tissue administered in presence of ML265; type: functional
[23] = system: NCI-H1299; assay: Induction of apoptosis in human NCI-H1299 cells assessed as late apoptotic cells at 500 micromol/L incubated for 24 hrs by Annexin V-FITC/PI staining based analysis (reference value: 2.63%); type: functional; settings: dose 500 µmol/L, at 500 µM
[24] = system: NCI-H1299; assay: Synergistic inhibition of NADPH production in human NCI-H1299 cells incubated for 2 hrs in presence of ML265 by NADP+/NADPH assay; type: functional, cell-based
[25] = system: NCI-H1299; assay: Inhibition of glycolysis in human NCI-H1299 cells assessed as reduction in lactate production incubated for 1 hrs in presence of ML265 by colorimetric assay; type: functional, cell-based
[26] = system: NCI-H1299; assay: Synergistic induction of oxidative phosphorylation in human NCI-H1299 cells assessed as increase in ATP production in presence of ML265 by luminescence based assay; type: functional, cell-based
[27] = system: NCI-H1299; assay: Induction of apoptosis in human NCI-H1299 cells assessed as early apoptotic cells at 500 micromol/L incubated for 24 hrs in presence of ML265 by Annexin V-FITC/PI staining based analysis (reference value: 0.772%); type: functional; settings: dose 500 µmol/L, at 500 µM
[28] = system: NCI-H1299; assay: Induction of apoptosis in human NCI-H1299 cells assessed as late apoptotic cells at 500 micromol/L incubated for 24 hrs in presence of ML265 by Annexin V-FITC/PI staining based analysis (reference value: 2.63%); type: functional; settings: dose 500 µmol/L, at 500 µM
[29] = system: NCI-H1299; assay: Inhibition of glycolysis in human NCI-H1299 cells assessed as reduction in glucose consumption incubated for 24 hrs in presence of ML265 by colorimetric assay; type: functional, cell-based

| Compound | IC50 [1] [µM] | IC50 [2] [µM] | IC50 at 24 h [3] [µM] | IC50 [4] [µM] | IC50 [5] [µM] | further results |
| --- | --- | --- | --- | --- | --- | --- |
| COC(=O)[C@H](CS[C@H](CC=C(C)C)C1=CC(=O)c2c(O)ccc(O)c2C1=O)NC(=O)CCCC[C@@H]1CCSC(c2ccc(OC)cc2)S1 (some centres undefined) | 2.81 | 2.34 | 86.2 | 2.71 | 6.44 |  |
| COC(=O)[C@H](CS[C@H](CC=C(C)C)C1=CC(=O)c2c(O)ccc(O)c2C1=O)NC(=O)CCCC[C@@H]1CCSC(c2ccc(OCc3ccccc3)cc2)S1 (some centres undefined) | 24.8 | 13.3 | 88.7 | 15.7 | 19.3 |  |
| COC(=O)[C@H](CS[C@H](CC=C(C)C)C1=CC(=O)c2c(O)ccc(O)c2C1=O)NC(=O)CCCC[C@@H]1CCSC(c2ccc(C)cc2)S1 (some centres undefined) | 10.5 | 12.4 | 80.4 | 4.12 | 10.4 |  |
| CC(C)=CC[C@@H](O)C1=CC(=O)c2c(O)ccc(O)c2C1=O [SHIKONIN] | 3.95 | 4.47 | 2.63 | 4.56 | 9.21 | Activity [6]: 27.5%; Activity [7]: 8.91%; Activity [8]: 8.69%; Activity [9]: 10.7%; Activity [10]: 17.2%; Activity [11]: 4.66%; Activity [12]: 9.96%; Activity [13]: 91.3%; Activity [14]: 4.34%; Activity [15]: 22.1% |
| CN(C)C(=O)c1ccc(S(=O)(=O)c2ccc(NC(=O)[C@@](C)(O)C(F)(F)F)c(Cl)c2)cc1 |  |  |  |  |  | Activity [16]: 0.01%; Activity [17]: 59%; Activity [18]: 0%; Activity [19]: 28.9%; Activity [20]: Active; Activity [21]: 20.6%; Activity [22]: Active; Activity [23]: 12.1%; inhibition [24]: Active; inhibition [25]: Active; Activity [26]: Active; Activity [27]: 7.63%; Activity [28]: 71.7%; inhibition [29]: Active |
| COC(=O)[C@H](CS[C@H](CC=C(C)C)C1=CC(=O)c2c(O)ccc(O)c2C1=O)NC(=O)CCCC[C@@H]1CCSC(c2ccc(Br)cc2)S1 (some centres undefined) | 3.27 | 18.1 | 88.8 | 4.68 | 13.2 |  |
| COC(=O)[C@H](CS[C@H](CC=C(C)C)C1=CC(=O)c2c(O)ccc(O)c2C1=O)NC(=O)CCCC[C@@H]1CCSC(C2CCCCC2)S1 (some centres undefined) | 11.6 | 18.3 | 86.1 | 13.3 | 11.5 |  |
| COC(=O)[C@H](CS[C@H](CC=C(C)C)C1=CC(=O)c2c(O)ccc(O)c2C1=O)NC(=O)CCCC[C@@H]1CCSC(c2ccc(Cl)cc2)S1 (some centres undefined) | 8.26 | 11.5 | 86 | 8.26 | 10.9 |  |
